Assay results as given in US10954488B2, “Extract of undifferentiated cells of Mimosa pudica and uses thereof in dermo-cosmetics” (PIERRE FABRE DERMO-COSMETIQUE, priority 2016, dated 2021).

Assays:
[1] = test system: nitrite production (NO synthesis induced by iNOS) in RAW264.7 cells; assay: Nitrite assay (Griess) in LPS-activated RAW264.7 macrophages; assay type: cell-based; conditions: Mus musculus, 1 μM dexamethasone 1 h before 0.2 μg/mL LPS, 24 h, read-out: inhibition of nitrite production (% i)
Source text: (§1) In this example, we compare the anti-inflammatory activity of 2 Mimosa pudica extracts (E11 and E13). Extract E11 comes from ethyl acetate extraction of the dried and crushed Mimosa pudica leaves and extract E13 comes from extraction with the same solvent of the crushed materials derived from Mimosa pudica plant cell culture without bioconversion in an Erlenmeyer flask. The 2 extracts were weighed after evaporation of the solvent to dryness. They were taken up in DMSO. To evaluate and compare the anti-inflammatory activity of the 2 extracts in the same concentrations, we have an in vitro pharmacological test which consists in stimulating murine macrophages, RAW264.7 cells, that express on their surface the TLR4 receptor by the bacterial LPS according to (Kang et al. 2002. J Pharmacol Exp Ther. 302:138-144). Several parameters were studied and compared to a reference anti-inflammatory, dexamethasone: • nitrite production by the Griess technique. […]
The level of NO synthesis is evaluated in fresh or frozen (−80° C.) cell supernatants, without affecting the assay. The principle of the assay is based on the Griess (diazotization) reaction which produces a pink azo compound with absorbance at 540 nm.
(§2) Concentrations are expressed as averages. […]

[2] = test system: IL-6 secretion in RAW264.7 cells; assay: IL6 assay by ELISA in LPS-activated RAW264.7 macrophages; assay type: cell-based; conditions: Mus musculus, 1 μM dexamethasone 1 h before 0.2 μg/mL LPS, 24 h, read-out: inhibition of IL-6 secretion (% i)
Source text: In this example, we compare the anti-inflammatory activity of 2 Mimosa pudica extracts (E11 and E13). Extract E11 comes from ethyl acetate extraction of the dried and crushed Mimosa pudica leaves and extract E13 comes from extraction with the same solvent of the crushed materials derived from Mimosa pudica plant cell culture without bioconversion in an Erlenmeyer flask. The 2 extracts were weighed after evaporation of the solvent to dryness. They were taken up in DMSO. To evaluate and compare the anti-inflammatory activity of the 2 extracts in the same concentrations, we have an in vitro pharmacological test which consists in stimulating murine macrophages, RAW264.7 cells, that express on their surface the TLR4 receptor by the bacterial LPS according to (Kang et al. 2002. J Pharmacol Exp Ther. 302:138-144). Several parameters were studied and compared to a reference anti-inflammatory, dexamethasone: • nitrite production by the Griess technique. The nitrite level reflects the level of NO synthesis induced by inducible […] (iNOS). • cytokine secretion: interleukin-6 by ELISA • TNF-alpha production by multiplex assay Cell Culture
RAW264.7 cells are mouse macrophages in lineage. […]
as §2

[3] = test system: TNF-alpha production in RAW264.7 cells; assay: TNF-alpha Luminex assay in LPS-activated RAW264.7 macrophages; assay type: cell-based; conditions: Mus musculus, 1 μM dexamethasone 1 h before 0.2 μg/mL LPS, 24 h, read-out: inhibition of TNF-alpha production (% i)
Source text: as §1, with “302:138-144).” for “302:138-144). Several parameters were studied and compared to a reference anti-inflammatory, dexamethasone: • nitrite production by the Griess technique.”
Simultaneous assay of TNF-alpha in the cell supernatants was performed using the Luminex xMAP (multi-analyte profiling) technology which is based on the principles of flow cytometry and ELISA in a 96-well microplate. The microbeads used as substrate incorporate two fluorochromes in a precise ratio, which gives them an identifying colour code (different fluorescences). […] The second laser, green, (λ=532 nm) excites the reporter fluorochrome attached to the specific detection antibody in order to quantify the cytokine. […]
as §2

[4] = test system: DEFB103A (Defensin, beta 103B); assay: In vitro model of induced atopic dermatitis, RT-qPCR: DEFB103A; assay type: cell-based, human; conditions: NHEK + Poly(I:C), IL4, IL13, 24 h; 0.28 mM DEXA; control NHEK = 1
Method: (§3) The pharmacological model was described by Castex-Rizzi et al. (Br J Dermatol. 2014. 170 Suppl 1:12-8)
(§4) PCC extracts collected from crushed, dried, standardized Mimosa pudica culture medium W01D15 (with bioconversion) were dissolved/diluted in solution in 40% EtOH at initial concentrations of 75 mg/ml. The compounds were solubilized extemporaneously for viability tests as well as at the appropriate dose in order to measure pharmacological action on the model of induced atopic dermatitis.
(§5) Normal human epidermal keratinocytes (NHEKs) from Lonza. The cells are amplified under standard culture conditions.
(§6) NHEK cells are seeded and cultured in Keratinocyte-SFM culture medium. […]
(§7) Extraction was carried out using RNABle (Eurobio) and the RNeasy Mini Kit from QIAGEN. The total RNAs extracted are assayed on a spectrophotometer (NanoDrop, ND1000, Thermo Scientific) and their qualities analysed on agarose gel.
(§8) Real-time PCR is a precise, sensitive and rapid method that allows the relative quantification of the rate of expression of a target gene relative to that of a ubiquitously expressed reference gene. This technique makes it possible to quantify messenger RNA. […] Incorporation of a fluorophore (SYBR Green) during the hybridization step of exponential amplification allows quantification and real-time monitoring of the amount of neo-formed amplification product. […]

[5] = test system: RNASE7 (Ribonuclease, RNase A family, 7); assay: In vitro model of induced atopic dermatitis, RT-qPCR: RNASE7; assay type: cell-based, human; conditions: NHEK + Poly(I:C), IL4, IL13, 24 h; 0.28 mM DEXA; control NHEK = 1
Method: as §3, §4, §5, §6, §7, §8

[6] = test system: S100A7 (S100 calcium binding protein A7); assay: In vitro model of induced atopic dermatitis, RT-qPCR: S100A7; assay type: cell-based, human; conditions: NHEK + Poly(I:C), IL4, IL13, 24 h; 0.28 mM DEXA; control NHEK = 1
Method: as §3, §4, §5, §6, §7, §8

[7] = test system: TLR3 (Toll-like receptor 3); assay: In vitro model of induced atopic dermatitis, RT-qPCR: TLR3; assay type: cell-based, human; conditions: NHEK + Poly(I:C), IL4, IL13, 24 h; 0.28 mM DEXA; control NHEK = 1
Method: as §3, §4, §5, §6, §7, §8

[8] = test system: IFNB1 (Interferon, beta 1, fibroblast); assay: In vitro model of induced atopic dermatitis, RT-qPCR: IFNB1; assay type: cell-based, human; conditions: NHEK + Poly(I:C), IL4, IL13, 24 h; 0.28 mM DEXA; control NHEK = 1
Method: as §3, §4, §5, §6, §7, §8

[9] = test system: IL1A (Interleukin 1, alpha); assay: In vitro model of induced atopic dermatitis, RT-qPCR: IL1A; assay type: cell-based, human; conditions: NHEK + Poly(I:C), IL4, IL13, 24 h; 0.28 mM DEXA; control NHEK = 1
Method: as §3, §4, §5, §6, §7, §8

[10] = test system: IL1B (Interleukin 1, beta); assay: In vitro model of induced atopic dermatitis, RT-qPCR: IL1B; assay type: cell-based, human; conditions: NHEK + Poly(I:C), IL4, IL13, 24 h; 0.28 mM DEXA; control NHEK = 1
Method: as §3, §4, §5, §6, §7, §8

[11] = test system: IL4R (Interleukin 4 receptor); assay: In vitro model of induced atopic dermatitis, RT-qPCR: IL4R; assay type: cell-based, human; conditions: NHEK + Poly(I:C), IL4, IL13, 24 h; 0.28 mM DEXA; control NHEK = 1
Method: as §3, §4, §5, §6, §7, §8

[12] = test system: TSLP (Thymic stromal lymphopoietin); assay: In vitro model of induced atopic dermatitis, RT-qPCR: TSLP; assay type: cell-based, human; conditions: NHEK + Poly(I:C), IL4, IL13, 24 h; 0.28 mM DEXA; control NHEK = 1
Method: as §3, §4, §5, §6, §7, §8

[13] = test system: CCL13 (Chemokine (C-C motif) ligand 13); assay: In vitro model of induced atopic dermatitis, RT-qPCR: CCL13; assay type: cell-based, human; conditions: NHEK + Poly(I:C), IL4, IL13, 24 h; 0.28 mM DEXA; control NHEK = 1
Method: as §3, §4, §5, §6, §7, §8

[14] = test system: CCL11 (Chemokine (C-C motif) ligand 11); assay: In vitro model of induced atopic dermatitis, RT-qPCR: CCL11; assay type: cell-based, human; conditions: NHEK + Poly(I:C), IL4, IL13, 24 h; 0.28 mM DEXA; control NHEK = 1
Method: as §3, §4, §5, §6, §7, §8

[15] = test system: CCL20 (Chemokine (C-C motif) ligand 20); assay: In vitro model of induced atopic dermatitis, RT-qPCR: CCL20; assay type: cell-based, human; conditions: NHEK + Poly(I:C), IL4, IL13, 24 h; 0.28 mM DEXA; control NHEK = 1
Method: as §3, §4, §5, §6, §7, §8

[16] = test system: CCL27 (Chemokine (C-C motif) ligand 27); assay: In vitro model of induced atopic dermatitis, RT-qPCR: CCL27; assay type: cell-based, human; conditions: NHEK + Poly(I:C), IL4, IL13, 24 h; 0.28 mM DEXA; control NHEK = 1
Method: as §3, §4, §5, §6, §7, §8

[17] = test system: CCL5 (Chemokine (C-C motif) ligand 5); assay: In vitro model of induced atopic dermatitis, RT-qPCR: CCL5; assay type: cell-based, human; conditions: NHEK + Poly(I:C), IL4, IL13, 24 h; 0.28 mM DEXA; control NHEK = 1
Method: as §3, §4, §5, §6, §7, §8

IL15 (Interleukin 15) = assay: In vitro model of induced atopic dermatitis, RT-qPCR: IL15; assay type: cell-based, human; conditions: NHEK + Poly(I:C), IL4, IL13, 24 h; 0.28 mM DEXA; control NHEK = 1
Method: as §3, §4, §5, §6, §7, §8

IL8 (Interleukin 8) = assay: In vitro model of induced atopic dermatitis, RT-qPCR: IL8; assay type: cell-based, human; conditions: NHEK + Poly(I:C), IL4, IL13, 24 h; 0.28 mM DEXA; control NHEK = 1
Method: as §3, §4, §5, §6, §7, §8

CX3CL1 (Fractalkine) = assay: In vitro model of induced atopic dermatitis, RT-qPCR: CX3CL1; assay type: cell-based, human; conditions: NHEK + Poly(I:C), IL4, IL13, 24 h; 0.28 mM DEXA; control NHEK = 1
Method: as §3, §4, §5, §6, §7, §8

## C[C@@H]1C[C@H]2[C@@H]3CCC4=CC(=O)C=C[C@]4(C)[C@@]3(F)[C@@H](O)C[C@]2(C)[C@@]1(O)C(=O)CO [dexamethasone]
[1]
  inhibition at 1 µM: 35%
[2]
  inhibition at 1 µM: 38%
[3]
  inhibition at 1 µM: 16%
[4]
  relative expression (RQ) of DEFB103A: 107.56
[5]
  relative expression (RQ) of RNASE7: 43.23
[6]
  relative expression (RQ) of S100A7: 79.12
[7]
  relative expression (RQ) of TLR3: 2.79
[8]
  relative expression (RQ) of IFNB1: 1.90
[9]
  relative expression (RQ) of IL1A: 8.54
[10]
  relative expression (RQ) of IL1B: 2.63
[11]
  relative expression (RQ) of IL4R: 7.03
[12]
  relative expression (RQ) of TSLP: 1.80
[13]
  relative expression (RQ) of CCL13: 1.98
[14]
  relative expression (RQ) of CCL11: 1.14
[15]
  relative expression (RQ) of CCL20: 28.94
[16]
  relative expression (RQ) of CCL27: 0.71
[17]
  relative expression (RQ) of CCL5: 49.90
IL15 (Interleukin 15)
  relative expression (RQ) of IL15: 29.16
IL8 (Interleukin 8)
  relative expression (RQ) of IL8: 7.89
CX3CL1 (Fractalkine)
  relative expression (RQ) of CX3CL1: 36.63
